From PubChem BioAssay (NCI)
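Results reflect a 48-hour exposure of cells in 96-well plates to compound at five concentrations. TGI marks complete inhibition of growth.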

Columns and labels:
Experiment in all cases: NCI tumour cell line growth inhibition, 48 h
SNB-19 CNS = test system: SNB-19 CNS
COLO 205 colon = test system: COLO 205 colon
HCT-116 colon = test system: HCT-116 colon
CAKI-1 renal = test system: CAKI-1 renal
LOX IMVI melanoma = test system: LOX IMVI melanoma
DLD-1 colon = test system: DLD-1 colon
HOP-62 NSCLC = test system: HOP-62 NSCLC
K-562 leukemia = test system: K-562 leukemia
MALME-3M melanoma = test system: MALME-3M melanoma
HL-60(TB) leukemia = test system: HL-60(TB) leukemia
A498 renal = test system: A498 renal
KM12 colon = test system: KM12 colon
SF-295 CNS = test system: SF-295 CNS
SF-539 CNS = test system: SF-539 CNS
SK-MEL-28 melanoma = test system: SK-MEL-28 melanoma
SF-268 CNS = test system: SF-268 CNS
SNB-75 CNS = test system: SNB-75 CNS
786-0 renal = test system: 786-0 renal
SK-MEL-2 melanoma = test system: SK-MEL-2 melanoma
RPMI-8226 leukemia = test system: RPMI-8226 leukemia
XF 498 CNS = test system: XF 498 CNS
UO-31 renal = test system: UO-31 renal
CCRF-CEM leukemia = test system: CCRF-CEM leukemia
M19-MEL melanoma = test system: M19-MEL melanoma
SR leukemia = test system: SR leukemia
OVCAR-8 ovarian = test system: OVCAR-8 ovarian
NCI-H23 lung = test system: NCI-H23 lung
MOLT-4 leukemia = test system: MOLT-4 leukemia
IGROV1 ovarian = test system: IGROV1 ovarian
UACC-62 melanoma = test system: UACC-62 melanoma
EKVX NSCLC = test system: EKVX NSCLC
HCC-2998 colon = test system: HCC-2998 colon
UACC-257 melanoma = test system: UACC-257 melanoma
SW-620 colon = test system: SW-620 colon
SK-OV-3 ovarian = test system: SK-OV-3 ovarian
NCI-H226 lung = test system: NCI-H226 lung
SN12C renal = test system: SN12C renal
NCI-H522 lung = test system: NCI-H522 lung
OVCAR-3 ovarian = test system: OVCAR-3 ovarian
RXF-631 renal = test system: RXF-631 renal
HT29 colon = test system: HT29 colon
HOP-92 NSCLC = test system: HOP-92 NSCLC
DMS 273 small cell lung = test system: DMS 273 small cell lung
SNB-78 CNS = test system: SNB-78 CNS
SK-MEL-5 melanoma = test system: SK-MEL-5 melanoma
A549 NSCLC = test system: A549 NSCLC
TK-10 renal = test system: TK-10 renal
OVCAR-4 ovarian = test system: OVCAR-4 ovarian
M14 melanoma = test system: M14 melanoma
LXFL 529 NSCLC = test system: LXFL 529 NSCLC
U251 CNS = test system: U251 CNS
OVCAR-5 ovarian = test system: OVCAR-5 ovarian
ACHN renal = test system: ACHN renal
HOP-18 NSCLC = test system: HOP-18 NSCLC
NCI-H460 lung = test system: NCI-H460 lung

## O=C(C=C1SCCS1)/C=C\c1ccc(Cl)cc1
SNB-19 CNS
  TGI: > 100 µM
COLO 205 colon
  TGI: > 100 µM
HCT-116 colon
  TGI: > 100 µM
CAKI-1 renal
  TGI: > 100 µM
LOX IMVI melanoma
  TGI: > 100 µM
DLD-1 colon
  TGI: > 100 µM
HOP-62 NSCLC
  TGI: > 100 µM
K-562 leukemia
  TGI: > 100 µM
MALME-3M melanoma
  TGI: > 100 µM
HL-60(TB) leukemia
  TGI: > 100 µM
A498 renal
  TGI: > 100 µM
KM12 colon
  TGI: > 100 µM
SF-295 CNS
  TGI: > 100 µM
SF-539 CNS
  TGI: > 100 µM
SK-MEL-28 melanoma
  TGI: > 100 µM
SF-268 CNS
  TGI: > 100 µM
SNB-75 CNS
  TGI: > 100 µM
786-0 renal
  TGI: > 100 µM
SK-MEL-2 melanoma
  TGI: > 100 µM
RPMI-8226 leukemia
  TGI: > 100 µM
XF 498 CNS
  TGI: > 100 µM
UO-31 renal
  TGI: > 100 µM
CCRF-CEM leukemia
  TGI: > 100 µM
M19-MEL melanoma
  TGI: > 100 µM
SR leukemia
  TGI: > 100 µM
OVCAR-8 ovarian
  TGI: > 100 µM
NCI-H23 lung
  TGI: > 100 µM
MOLT-4 leukemia
  TGI: > 100 µM
IGROV1 ovarian
  TGI: > 100 µM
UACC-62 melanoma
  TGI: > 100 µM
EKVX NSCLC
  TGI: > 100 µM
HCC-2998 colon
  TGI: 84.1 µM
UACC-257 melanoma
  TGI: > 100 µM
SW-620 colon
  TGI: > 100 µM
SK-OV-3 ovarian
  TGI: > 100 µM
NCI-H226 lung
  TGI: > 100 µM
SN12C renal
  TGI: > 100 µM
NCI-H522 lung
  TGI: > 100 µM
OVCAR-3 ovarian
  TGI: > 100 µM
RXF-631 renal
  TGI: > 100 µM
HT29 colon
  TGI: > 100 µM
HOP-92 NSCLC
  TGI: > 100 µM
DMS 273 small cell lung
  TGI: > 100 µM
SNB-78 CNS
  TGI: > 100 µM
SK-MEL-5 melanoma
  TGI: > 100 µM
A549 NSCLC
  TGI: > 100 µM
TK-10 renal
  TGI: > 100 µM
OVCAR-4 ovarian
  TGI: > 100 µM
M14 melanoma
  TGI: > 100 µM
LXFL 529 NSCLC
  TGI: > 100 µM

## COc1ccc(/C=N/NC(=O)c2sc(=S)n(-c3ccccc3)c2N)cc1
U251 CNS
  TGI: > 100 µM
SNB-19 CNS
  TGI: > 100 µM
COLO 205 colon
  TGI: > 100 µM
HCT-116 colon
  TGI: > 100 µM
OVCAR-5 ovarian
  TGI: > 100 µM
DLD-1 colon
  TGI: > 100 µM
HOP-62 NSCLC
  TGI: > 100 µM
K-562 leukemia
  TGI: > 100 µM
HL-60(TB) leukemia
  TGI: > 100 µM
ACHN renal
  TGI: > 100 µM
KM12 colon
  TGI: > 100 µM
HOP-18 NSCLC
  TGI: > 100 µM
SF-295 CNS
  TGI: > 100 µM
SF-539 CNS
  TGI: > 100 µM
NCI-H460 lung
  TGI: > 100 µM
SK-MEL-28 melanoma
  TGI: > 100 µM
SF-268 CNS
  TGI: > 100 µM
SNB-75 CNS
  TGI: 8.67 µM
UO-31 renal
  TGI: > 100 µM
CCRF-CEM leukemia
  TGI: > 100 µM
M19-MEL melanoma
  TGI: > 100 µM
SR leukemia
  TGI: > 100 µM
OVCAR-8 ovarian
  TGI: > 100 µM
NCI-H23 lung
  TGI: > 100 µM
MOLT-4 leukemia
  TGI: > 100 µM
IGROV1 ovarian
  TGI: > 100 µM
UACC-62 melanoma
  TGI: > 100 µM
HCC-2998 colon
  TGI: > 100 µM
UACC-257 melanoma
  TGI: > 100 µM
SW-620 colon
  TGI: > 100 µM
SK-OV-3 ovarian
  TGI: > 100 µM
NCI-H226 lung
  TGI: > 100 µM
NCI-H522 lung
  TGI: > 100 µM
OVCAR-3 ovarian
  TGI: > 100 µM
HT29 colon
  TGI: > 100 µM
HOP-92 NSCLC
  TGI: 79.5 µM
SK-MEL-5 melanoma
  TGI: > 100 µM
A549 NSCLC
  TGI: > 100 µM
TK-10 renal
  TGI: > 100 µM
LXFL 529 NSCLC
  TGI: > 100 µM
